# Laboratory results: publication PMC8721105, “Novel Trypanocidal Inhibitors that Block Glycosome Biogenesis by Targeting PEX3–PEX19 Interaction” (Frontiers in Cell and Developmental Biology, 2021)
# Entries after “also recorded” stand apart in the source; their conditions may differ. Like-named read-outs stand apart in the source and are kept apart here.
# Legend:
# [1] = target: TbPEX3–TbPEX19 interaction (Trypanosoma brucei brucei, UniProt Q383Q3); assay: AlphaScreen TbPEX3–TbPEX19 inhibitor screening and dose response; format: binding; conditions: for Activity scores (robust z-scores) / Note (activity in the screen): primary AlphaScreen screen, 10 μM compound
# Sequence of TbPEX3–TbPEX19 interaction (Q383Q3 entry or part of it, other chains not shown): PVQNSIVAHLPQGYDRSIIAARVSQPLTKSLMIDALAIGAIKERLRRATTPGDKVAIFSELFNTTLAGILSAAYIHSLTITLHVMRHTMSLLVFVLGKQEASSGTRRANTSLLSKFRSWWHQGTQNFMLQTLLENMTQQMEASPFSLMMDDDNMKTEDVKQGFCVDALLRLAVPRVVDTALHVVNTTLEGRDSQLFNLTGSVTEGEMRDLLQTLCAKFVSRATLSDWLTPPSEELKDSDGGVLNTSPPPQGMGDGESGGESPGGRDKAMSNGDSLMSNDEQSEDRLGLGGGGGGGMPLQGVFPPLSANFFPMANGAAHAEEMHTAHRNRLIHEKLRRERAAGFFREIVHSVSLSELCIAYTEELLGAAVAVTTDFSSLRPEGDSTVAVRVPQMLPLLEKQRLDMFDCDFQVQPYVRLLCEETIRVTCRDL
# Protocol: The above solutions were prepared in the reaction buffer [0.5% BSA v/v, 0.05% Tween 80 v/v, 0.2 mM DTT, PBS (pH7.4)] on the day of assay, diluting the compounds from 1 mM stocks in DMSO. Compounds were incubated with the proteins for 30 min at room temperature (RT). Five microliters of AlphaScreen Nickel-chelate acceptor beads (cat. no. 6760619C, PerkinElmer®) and AlphaScreen Glutathione donor beads (cat. no. 6765300, PerkinElmer®) were distributed to the mixture consecutively, with a 15-min interval. The complete 25-μl reaction solutions were incubated for 45 min at RT in the dark, and Alpha signals were captured with Cytation 5 plate reader (BioTek®) with the gain value set at 180. Schematic representation of the experiment setup of the high-throughput screening assays was prepared with BioRender.com.
# Following initial hit selection, 10 μM of drugs were tested with GST-His (54 nM) and TbPEX19/TbPEX3 (5 nM) in smaller scale, and the level of signal was normalized (in %) and compared.
# [2] = ref ChemBridge, cited from earlier work; for Hacc (hydrogen bond acceptor) / Hdon (hydrogen bond donor): provided by the compound library supplier; for LogSw: supplier data
# GST-TbPEX3d44 = assay: NMR saturation transfer difference (STD) with GST-TbPEX3; format: binding, Trypanosoma brucei; conditions: for STD NMR effect with GST-TbPEX3: 10 μM protein, 300 µM ligand
# Protocol: (§1) NMR saturation transfer difference (STD) experiments ([Mayer and Meyer, 1999]) were carried out on a Bruker AVIII 600-MHz spectrometer equipped with a cryoprobe and a SampleJet auto sampler. One-dimensional (1D) and STD spectra were acquired at 298 K. Compounds were dissolved in DMSO-d6 to a final concentration of 50 mM. STD experiments with GST-TbPEX3, TbPEX19-His, and GST-His were performed in PBS (pH 7.4), 10% D2O at a protein concentration of 10 μM, and a ligand concentration of 300 µM. Saturation time and interscan delay within STD experiments were set to 2 and 2.5 s, respectively.
# GST-His = target: T1, GST-His (Schistosoma japonicum, UniProt P08515); assay: NMR saturation transfer difference (STD) with GST-His control; format: binding; conditions: 10 μM protein, 300 µM ligand
# T1 construct: made in house; host or cells: E. coli BL21(DE3)
# T1 sequence (P08515 whole entry): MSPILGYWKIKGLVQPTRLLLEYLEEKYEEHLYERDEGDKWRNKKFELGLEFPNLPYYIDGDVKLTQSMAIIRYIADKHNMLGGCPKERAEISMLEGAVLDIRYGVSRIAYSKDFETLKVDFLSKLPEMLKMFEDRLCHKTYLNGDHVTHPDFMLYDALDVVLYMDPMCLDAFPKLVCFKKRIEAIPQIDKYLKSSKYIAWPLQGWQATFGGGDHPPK
# Protocol: as §1
# T. brucei BSF427 = assay: T. brucei cell viability, resazurin-based assay; design: species or system Trypanosoma brucei
# Protocol: BSF strain Lister 427 (termed hereafter as BSF427) and cell line 90-13 (stably expressing Tet repressor) were used in this study. BSF cells were grown in HMI-11 medium and maintained in logarithmic phase [below 2 × 10^6 cells/ml as described in [Kalel et al. (2019)]]. Genomically integrated stable transfections were performed with NotI-linearized plasmid constructs (pGN1-TbPEX11), which integrate into the spacer region of the ribosomal RNA repeat locus in the genome of cell line 90-13, and the clones were selected using blasticidin as described previously ([Kalel et al., 2015]). Expression of TbPEX11-GFP was confirmed with fluorescence microscopy following induction tests (data not shown) with a serial dilution of tetracycline, and minimal concentration (5 ng/ml) of tetracycline was used to achieve expression of the protein in more than 80% of the cells.
# T. brucei BSF427 and compound dilutions were mixed in 1 : 1 (v/v) ratio to total volume of 200 μl, to reach final concentrations of 2 × 10^3 cells/ml and 0.19–100 μM of inhibitors, in quadruplicates in 96-well plates. Culture medium with no cells was used as negative control and cultures without presence of compounds as positive control representing normal rate of cell growth. Cells were grown at 37°C in an incubator with humidified air containing 5% CO2 for 3 days. Cell viabilities were measured quantitatively using resazurin dye, by adding 25-µl resazurin (0.1 mg/ml in HBSS) to each well, and the mixture incubated for 6 h in the incubator. Fluorescence emission was detected at 570 and 585 nm after excitation at 530 nm, and fluorescence at 570 nm was subtracted from 585 nm. The inhibition curves were fitted with normalized fluorescence signal (in percentage) against concentration of compounds in Log10 scale using GraphPad Prism, and best fit was used for EC50 estimation. Chemical structures were drawn with ChemDraw 20.0.
# [3] = system: T. brucei bloodstream form parasites; assay: Immunofluorescence microscopy of glycosomal aldolase localization; format: cell-based, Trypanosoma brucei; conditions: 24 h treatment
# Protocol: BSF 90-13 cells with genomically integrated PEX11-GFP were induced with 5 ng/ml of tetracycline and cultured overnight to initiate stable expression of PEX11-GFP. BSF427- and PEX11-GFP–expressing cells were treated for 24 h with 100 μM, 50 and 25 μM of each of the inhibitor, and DMSO was used as control. Compound-treated cultures with growth rates of about 50% compared to the DMSO control were harvested and stained for immunofluorescence and statistical analysis. Cells were fixed with 4% paraformaldehyde in PBS containing 250 mM sucrose for 20 min. Fixed cells were immobilized on adhesive slide (StarFrost®) pre-coated with 10% (v/v) of poly-L-lysine (Sigma-Aldrich®) in water after 1-h incubation at RT. Cells were permeabilized with 0.1% (v/v) Triton X-100 in PBS (pH7.4) for 15 min and blocked in buffer D [PBS supplemented with 1% (w/v) BSA and 0.25% (v/v) Tween 20] for 1 h. Anti-TbAldolase primary antibody was used at 1:500 dilution in buffer D for 1.5 h incubation. After five washes in PBS for 30 min, samples were treated with Goat anti-rabbit secondary antibody (1:200, v/v, Alexa Fluor™ 594). Samples were washed, dried, and mounted with Mowiol containing 4′,6-diamidino-2-phenylindole (DAPI). Immuno-stained cells were visualized with Zeiss Elyra microscopy. Pictures of stack 3 (of 5), rotation 1 (of 3), and phase 5 (of 5) were chosen for all control and compound-treated samples.
# [4] = Cytotoxicity test on HepG2 cells; conditions: human
Structure (SMILES),Activity scores (robust z-scores) [1],Note (activity in the screen) [1],Hacc (hydrogen bond acceptor) [2],Hdon (hydrogen bond donor) [2],LogSw [2],also measured
"O=C(Cc1cccs1)N1C[C@H](O)[C@@H](N2CCCCC2)C1 (racemic) [Compound 41601289, rac-(3S,4S)-4-piperidin-1-yl-1-(2-thienylacetyl)pyrrolidin-3-ol]",0.3122,Not active,3,1,-2.24,
"c1ccc(-c2ncc(CNCCOc3cccc4cccnc34)cn2)nc1 [Compound 1, N-[(2-pyridin-2-ylpyrimidin-5-yl)methyl]-2-(quinolin-8-yloxy)ethanamine]",,,6,1,-2.69,"IC50 [1]: 1 µM; STD NMR effect with GST-TbPEX3 (GST-TbPEX3d44): significant STD effects; also recorded: strong STD signal; Target protein (NMR analysis) (GST-TbPEX3d44; protein assigned as target, GST-TbPEX3, TbPEX19-His and GST-His tested): TbPEX3; STD NMR effect with GST-His control (GST-His): not to GST-His; also recorded: not with TbPEX19 or GST; EC50 (T. brucei BSF427; BSF427, 3 days of incubation, resazurin, read-out: T. brucei toxicity (EC50)): 33 µM; EC50 (T. brucei BSF427; Trypanosoma brucei, 72 h, BSF427, 3 days of incubation, resazurin, read-out: T. brucei toxicity (EC50)): 32.7 µM; Aldolase labeling phenotype (in words) [3]: diffused pattern of aldolase labeling; EC50 ([4]; HepG2 cells, Human cell cytotoxicity (EC50), HepG2, serial dilutions of up to 200 µM): > 200 µM"
"CCNC(=O)c1cc(NC(=O)C2CCOCC2)ccc1Cl [Compound 5, N-{4-chloro-3-[(ethylamino)carbonyl]phenyl}tetrahydro-2H-pyran-4-carboxamide]",,,3,2,-2.58,Inhibition of TbPEX3–PEX19 interaction (in words) [1]: did not inhibit; STD NMR effect with GST-TbPEX3 (GST-TbPEX3d44): show STD signal; also recorded: consistent STD effects
"CC(CCNC(=O)N1CCC(Oc2ncccn2)CC1)n1ccnc1 (centres unmarked) [Compound 6, N-[3-(1H-imidazol-1-yl)butyl]-4-(pyrimidin-2-yloxy)piperidine-1-carboxamide]",,,5,1,-2.34,Inhibition of TbPEX3–PEX19 interaction (in words) [1]: did not inhibit; STD NMR effect with GST-TbPEX3 (GST-TbPEX3d44): show STD signal; also recorded: consistent STD effects
"COc1cc(CN2CCCN(Cc3ccccn3)CC2)cc2c1OCO2 [Compound 25282511, 1-[(7-methoxy-1,3-benzodioxol-5-yl)methyl]-4-(pyridin-2-ylmethyl)-1,4-diazepane]",,"Active, require characterization",6,0,-0.93,
"CCN(Cc1nccn1C)Cc1nccn1-c1ccc(OC)cc1 [Compound 26410952, N-{[1-(4-methoxyphenyl)-1H-imidazol-2-yl]methyl}-N-[(1-methyl-1H-imidazol-2-yl)methyl]ethanamine]",,"Active, require characterization",4,0,-3.12,
"CNC(=O)c1cccc(NC(=O)C2CCOC(C)(C)C2)c1C (centres unmarked) [Compound 31960442, 2,2-dimethyl-N-{2-methyl-3-[(methylamino)carbonyl]phenyl}tetrahydro-2H-pyran-4-carboxamide]",0.2733,Not active,3,2,-2.90,
"Cc1cc(=O)n(CCN(Cc2ccccn2)CC2CCCO2)c(=O)[nH]1 (centres unmarked) [Compound 54483906, 6-methyl-3-{2-[(pyridin-2-ylmethyl)(tetrahydrofuran-2-ylmethyl)amino]ethyl}pyrimidine-2,4(1H,3H)-dione]",,"Active, require characterization",5,1,-1.32,
"CC(C)c1cc(C2CCCN2C(=O)c2ccc(-c3nnn(C)n3)cc2)no1 (centres unmarked) [Compound 54866350, 5-(4-{[2-(5-isopropylisoxazol-3-yl)pyrrolidin-1-yl]carbonyl}phenyl)-2-methyl-2H-tetrazole]",2.5166,Not active,6,0,-2.94,
"CC(=O)Nc1ccccc1NC(=O)CN(C)Cc1cnn(C)c1 [Compound 67602110, N~1~-[2-(acetylamino)phenyl]-N~2~-methyl-N~2~-[(1-methyl-1H-pyrazol-4-yl)methyl]glycinamide]",0.7988,Not active,4,2,-2.21,
"COCCN(Cc1cn2ccc(C)cc2n1)Cc1nccs1 [Compound 79442734, (2-methoxyethyl)[(7-methylimidazo[1,2-a]pyridin-2-yl)methyl](1,3-thiazol-2-ylmethyl)amine]",,"Active, require characterization",4,0,-2.43,
"COc1cccc(N2CCN(C(=O)c3cccc(-c4cn[nH]c4)c3)CC2)c1 [Compound 92838291, 1-(3-methoxyphenyl)-4-[3-(1H-pyrazol-4-yl)benzoyl]piperazine]",1.4019,Not active,3,1,-3.20,
"CN[C@@H]1C[C@H](N)[C@@H](O)[C@H](O[C@H]2O[C@H](CO)[C@H](O)[C@@H]3O[C@@]4(O[C@@H]23)O[C@H]([C@H](N)CO)[C@H](O)[C@H](O)[C@H]4O)[C@H]1O [Hygromycin, reference compound]",,,,,,EC50 [4]: 16.2 µM
"Cc1ccc(C(=O)Nc2ccc(S(=O)(=O)O)c3cc(S(=O)(=O)O)cc(S(=O)(=O)O)c23)cc1NC(=O)c1cccc(NC(=O)Nc2cccc(C(=O)Nc3cc(C(=O)Nc4ccc(S(=O)(=O)O)c5cc(S(=O)(=O)O)cc(S(=O)(=O)O)c45)ccc3C)c2)c1 [suramin, reference compound]",,,,,,"EC50 (T. brucei BSF427; Trypanosoma brucei, 72 h, read-out: T. brucei EC50, BSF427, 3 days of incubation, resazurin, positive control): 0.037 µM; EC50 (T. brucei BSF427; read-out: T. brucei EC50, BSF427, 3 days of incubation, resazurin, positive control): 0.0371 µM"
